Data taken from patent US7829305B2, “Method for monitoring the presence of biofilmforming microorganisms in paper industry” (Kemira Oyj, priority 2003, dated 2010).

System: biofilms formed in a paper machine
Assay: Inactivation of biofilms pre-grown in situ on sampler pegs; re-growth of new biofilm in the culturing step, safranin staining, visual evaluation
Assay type: cell-based
Conditions: for formation of new biofilm during the culturing step after treatment of the biofilm on the pegs: biofilm grown 68 h in clear filtrate silo of neutral fine paper machine at 52° C., treatment 1 to 50 ppm (active substance), stagnant 52° C., 2 h, culturing in R2-broth 250 rpm, 52° C., 17 h, safranin, evaluated visually
Text: In this experiment one embodiment of the sampler device of the invention is used to illustrate the method of the invention for determining the effect of several anti-biofilm agents in inactivation of biofilms formed in a paper machine.
In this embodiment the sampler device comprises 12 stainless steel pegs fixed from one end on a stainless steel lid. The lid with the pegs is presented in FIG. 1 together with a treatment plate with 12 wells adapted to receive the pegs when the lid is placed on the plate. Suitably the lid was designed to be complementary with the commercially available 12-well polystyrene plates.
Three sampler lids are immersed in the clear filtrate silo of a neutral fine paper machine and allowed to hang immersed in said filtrate at the temperature of 52° C. of the process water, for 68 h. Then the samplers are removed, rinsed once with sterilized tap water, and each lid is placed on a 12-well treatment plate so that the pegs with biofilms formed in situ in the process on the surface thereof are immersed in the treatment solution within the wells, each peg in one well, while being supported at the one end by the lid.
Each well of a treatment plate contains 3.5 ml of sterilized tap water alone (reference samples) or 3.5 ml of sterilized tap water together with an anti-biofilm agent at a concentration of 1 to 50 ppm (active substance). The maximum volume of the wells is used so that almost the whole length of the pegs will be exposed to the anti-biofilm agents (the treatment solution). The tested anti-biofilm agents are BCDMH (Bromo-chloro-5,5-dimethyl hydantoine), a mixture of 5-chloro-2-methyl-4-isothiazolin-3-one and 2-methyl-4-isothiazolin-3-one, THPS (tetrakis(hydroxy-methyl)phosphomiumsulphate, DBNPA (2,2-dibromo-2-cyanoacetamide), glutar-aldehyde, MBT (methylene-bis(thiocyanate)), BNPD (bromo-2-nitropropan-1,3-diol), all of which are commercially available.
The anti-biofilm treatment step is carried out by incubating the plates with the lid thereon stagnant at 52° C. for 2 h. After the treatment step the lids are removed from the plate and rinsed three times with sterilized tap water and then placed on the 12-well culturing plates, which are similar to the treatment plates, but the wells contain 2.5 ml of sterile R2-broth (Difco). The culturing plates (plate+lid with the pegs immersed in the wells) are shaken at 250 rpm, at 52° C., for 17 h.
Finally, the pegs and growth media are removed from the wells, the wells are rinsed once with tap water and the microbes adhered on the walls of the wells are stained with safranin. The amount of biofilm produced by the microbes that survived alive through the treatment step with anti-biofilm agents is evaluated visually.

Row | Structure (SMILES) | formation of new biofilm during the culturing step after treatment of the biofilm on the pegs | lowest concentration of anti-biofilm agent achieving prevention of re-growth of new biofilm in the culturing step (treatment 2 h at 52° C., culturing 17 h at 52° C. in R2-broth, concentration as active substance)
1 | O=S(=O)([O-])[O-].OC[P+](CO)(CO)CO.OC[P+](CO)(CO)CO [THPS, tetrakis(hydroxy-methyl)phosphomiumsulphate] | no new biofilm is formed | –
2 | O=CCCCC=O [glutaraldehyde] | no new biofilm is formed | –
3 | N#CSCSC#N [MBT, methylene-bis(thiocyanate)] | still capable to form new biofilm | –
4 | CC1(C)C(=O)N(Br)C(=O)N1Cl [BCDMH, Bromo-chloro-5,5-dimethyl hydantoine] | no new biofilm is formed | –
5 | N#CC(Br)(Br)C(N)=O [DBNPA, 2,2-dibromo-2-cyanoacetamide] | no new biofilm is formed | 5 ppm
6 | O=[N+]([O-])C(Br)(CO)CO [BNPD, bromo-2-nitropropan-1,3-diol] | still capable to form new biofilm | –
